Earlier results as cited in US5843713A, “Peptide sequence that forms mucin sugar chain and technique for modifying protein to be linked with mucin sugar chain” (Kirin Beer Kabushiki Kaisha, priority 1994, dated 1998).

Tested on: O-GalNAc T derived from swine submaxillary gland
Conditions: literature, Biochemistry Vol.18 (1979)

Substance	GalNAc acceptor activity
TPRTPPP [literature peptide derived from bovine myelin basic protein]	highly active GalNAc acceptors
TPPP: literature peptide derived from bovine myelin basic protein (RTPPP)	highly active GalNAc acceptors
PRTPPP: literature peptide derived from bovine myelin basic protein	highly active GalNAc acceptors

Tested on: crude enzyme solution of O-GalNAc T extracted from human breast cancer cells MCF7
Conditions: literature, J. Biol. Chem. Vol.269 (1994)

Substance	transfer of GalNAc
PDTRPAPGS [literature peptide analogous to repetitive region of human mucin MUC1]	no transfer of GalNAc is observed
PDTRAPPGS [literature peptide analogous to repetitive region of human mucin MUC1]	no transfer of GalNAc is observed
PDTRPPAGS [literature peptide analogous to repetitive region of human mucin MUC1]	no transfer of GalNAc is observed
